Data as given in US4554355A, “Heterocyclic compounds as antiallergic agents” (American Home Products Corporation, priority 1984, dated 1985).
Read-outs that look alike come from different tables or passages of the source.

Key:
[1] = tested on: synthesis of 5-HETE and LTB4 by rat glycogen-elicited polymorphonuclear leukocytes; assay: inhibition of the synthesis of 5-HETE and LTB4 by rat glycogen-elicited polymorphonuclear leukocytes; assay type: cell-based, rat (female Wistar); conditions: rat PMN, A23187 10 μM; for IC50: Leukocyte, 10 min preincubation
Description: This is especially true with respect to 5,12-diHETE, which is also denoted as LTB4 [see Ford-Hitchinson, J. Roy. Soc. Med., 74, 831 (1981)]. The assay of this Example measures the ability of the compounds of the invention to inhibit the synthesis of 5-HETE and LTB4 by rat glycogen-elicited polymorphonuclear leukocytes.
The assay is carried out as follows:
Peritoneal PMN are obtained from female Wistar rats (150-250 g) that received an i.p. injection of 6% glycogen (10 ml). After 24 hours, rats are killed by CO2 asphyxiation and peritoneal cells are harvested by peritoneal lavage using Ca^++ and Mg^++ free Hanks' balanced salt solution (HBSS). The peritoneal exudate is centrifuged at 400 g for 10 minutes. After centrifugation, the lavaged fluid is removed and the cell pellet is resuspended in HBSS containing Ca^++ and Mg^++ and 10 mM L-cysteine at a concentration of 2×10^7 cells/ml. To 1 ml portions of cell suspension, test drugs or vehicle are added and incubated at 37° C. for 10 minutes. Following this preincubation, the calcium ionophore (10 μM), A23187, is added together with 0.5 μCi[^14 C]arachidonic acid and further incubated for 10 minutes. The reaction is stopped by the addition of ice cold water (3 ml) and acidifying to pH 3.5. Lipoxygenase products are then extracted twice into diethyl ether. The pooled ether extracts are evaporated to dryness under nitrogen and the residue is redissolved in a small volume of methanol and spotted on aluminum backed pre-coated thin layer chromatographic plates. The samples are then co-chromatographed with authentic reference 5-HETE, 12-HETE and 5,12-diHETE in the solvent system--hexane:ether:acetic acid (50:50:3). After chromatography, the areas associated with 5-HETE and 5,12-diHETE standards are identified by autoradiography, cut out and quantitated by liquid scintillation.
Results are expressed as % inhibition of [^14 C]5-HETE and [^14 C]LTB4 (5,12-HETE) synthesis. [formula]
Testing compounds of the invention in this assay and using the antioxidant 3-amino-1-[m-(trifluoromethyl)phenyl]-2-pyrazoline (BW755C) as a standard, the following results are obtained.

[2] = tested on: LTD4 induced bronchospasm; assay: in vivo inhibition of bronchospasm induced in guinea pigs by exogenously administered leukotriene LTD4; design: species or system guinea pig (male Hartley strain); conditions: guinea pig, 50 mg/kg intraduodenal, 10 minutes before induction
Description: The assay of this Example measures the in vivo ability of the compounds of the invention to inhibit the bronchospasm induced in guinea pigs by the exogenously administered leukotrienes C4 and/or D4. This assay is essentially a measure of the SRS-A antagonist properties of the compounds tested.
This assay is carried out as follows:
Male Hartley strain guinea pigs (350-600 g) are anesthetized with pentobarbital sodium (50 mg/kg, i.p.). The jugular vein is cannulated for injection of drugs and the carotid artery for monitoring blood pressure. The trachea is cannulated for artificial ventilation by a miniature Starling pump and for indirect measurement of respiratory volume changes as described infra. Additional pentobarbital sodium (15 mg/kg, i.v.) is administered to arrest spontaneous respiration. Submaximal bronchoconstrictor responses are established in control animals by varying the dose-levels of leukotriene. Intravenous dose-levels for LTC4 range from 1 to 2 μg/kg and for LTD4 the range is from 0.3 to 1 μg/kg. The aerosol bronchoprovocation dose for LTC4 is generated from 1.6 μM solution and for LTD4 from a 2.0 μM solution.
Test drugs are administered either intravenously, intraduodenally, by aerosol or orally at 1 or 10 minutes before induction of bronchospasm by administration of either LTC4 or LTD4 at the predetermined dose-levels. Aerosols of soluble drugs or leukotrienes are produced in-line for 10 seconds only by actuation of an ultrasonic nebulizer (Monaghan). Aerosolized drug dosage is expressed in terms of solution concentration and by a fixed aerosol exposure time (approximately 10 seconds). Control animals receive saline in place of drug.
Respiratory volume changes are determined by a calibrated piston whose travel is recorded, via a linear transducer, on a Beckman Dynograph recorder. Maximal bronchoconstrictor volume is determined by clamping off the trachea at the end of the experiment. Overflow volumes at 1, 3 and 5 minutes are obtained from the recorded charts.
The overflow volume at 1, 3 and 5 minutes is expressed as a percentage of maximal bronchoconstriction. Combined group values are used from each of these time intervals to determine the inhibitory effect of drugs. [formula] Students t-test for unpaired data is used to determine statistical significance. Dose response curves are generated and ED50 doses are interpolated from the regression lines.
Results for a compound of the invention in this assay, using LTD4 for induction of bronchospasm, is given below: […]

Row | Structure (SMILES) | IC50 ([1]; [14C]5-HETE synthesis, read-out: 50% Inhibitory Concentration (IC50), 5-HETE) [µM] | IC50 ([1]; [14C]LTB4 synthesis, read-out: 50% Inhibitory Concentration (IC50), LTB4) [µM] | % Inhibition Overflow Volume at 1 min. [2] [%] | % Inhibition Overflow Volume at 3 min. [2] [%] | % Inhibition Overflow Volume at 5 min. [2] [%] | % Inhibition at 100 μm, 5-HETE ([1]; [14C]5-HETE synthesis) [%] | % Inhibition at 100 μm, LTB4 ([1]; [14C]LTB4 synthesis) [%]
1 | NC1=NN(c2cccc(C(F)(F)F)c2)CC1 [BW755C, 3-amino-1-[m-(trifluoromethyl)phenyl]-2-pyrazoline, reference compound] | 43 | 30 | – | – | – | – | –
2 | COC(=O)C1CC(=O)N(c2cccc(OCc3nc4ccccc4s3)c2)C1 (centres unmarked) [Example 1, N-[3-[(2-Benzthiazolyl)methoxy]phenyl]pyrrolidin-2-on-4-carboxylic acid, methyl ester] | – | – | 72 | 66 | 68 | 94.30 | 84.50
3 | COC(=O)C1CC(=O)N(c2cccc(OCc3nc4ccccc4n3C)c2)C1 (centres unmarked) [Example 2A, N-[3-[(1-methyl-2-benzimidazolyl)methoxy]phenyl]pyrrolidin-2-on-4-carboxylic acid, methyl ester] | – | – | 56 | 20 | 18 | 34.60 | 32.30
4 | COC(=O)C1CC(=O)N(c2cccc(OCc3nc4ccccc4o3)c2)C1 (centres unmarked) [Example 2B, N-[3-[(2-benzoxazolyl)methoxy]phenyl]pyrrolidin-2-on-4-carboxylic acid, methyl ester] | – | – | 26 | 12 | 15 | 87.20 | 82.80
